Data as given in patent publication US9133157B2, “HIV protease inhibitors” (Merck Canada Inc., priority 2011, dated 2015).

The molecules below were run against WT HIV-1 protease (Human immunodeficiency virus type 1 group M subtype B (isolate HXB2) (HIV-1), UniProt P04585) (assay: Assay for inhibition of microbial expressed HIV protease (Procedure A, peptide substrate, HPLC fluorescence detection)). Settings: WT HIV-1 protease 10 pM, substrate 400 micromolar, pH 5.5, 30 min preincubation, 1 hour at 30° C.; read-out: Enzyme inhibition IC50.
Assay type: biochemical
Protocol: The inhibition of WT HIV-1 protease was studied using the reaction of the protease (expressed in Eschericia coli) with a peptide substrate [Val-Ser-Gln-Asn-(betanaphthyl)Ala-Pro-Ile-Val (SEQ ID NO:1)]. Compounds were tested using Procedure A. In Procedure A, the test compound was first preincubated with the enzyme in assay buffer (50 mM sodium acetate, pH 5.5, 100 mM NaCl, and 0.1% BSA) for 30 minutes at room temperature. Substrate was then added to 400 micromolar in a total volume of 80 microliters containing 10 picomolar HIV-1 protease and the reaction was incubated for 1 hour at 30° C. The reaction was quenched with the addition of 120 microliters of 10% phosphoric acid. The product formation was determined after separation of product and substrate on a Zorbax Eclipse XDB-C18 column (Agilent Technologies, Santa Clara, Calif.) connected to an Agilent 1100 high performance liquid chromatography system with fluorescence detection (excitation 270 nanometer and emission 330 nanometer).

Point of comparison: COC(=O)N[C@H](C(=O)N[C@H](c1ccc([C@@H](CO)N(CCC(C)(C)C)S(=O)(=O)c2ccc(-c3ccn(C)n3)cc2)s1)C(F)(F)F)C(c1ccccc1)c1ccccc1 [Example 92], IC50 66.6 nM. Against it:
- COC(=O)N[C@H](C(=O)N[C@@H](C)c1ccc([C@@H](CO)N(CC(C)C)S(=O)(=O)c2ccc(N)cc2)s1)C(c1ccccc1)c1ccccc1 [Example 76, N-[(1S)-1-{5-[(1R)-1-{[(4-aminophenyl)sulfonyl](2-methylpropyl)amino}-2-hydroxyethyl]thiophen-2-yl}ethyl]-Nα-(methoxycarbonyl)-β-phenyl-L-phenylalaninamide] — 5.6-fold lower, 11.8 nM
- COC(=O)N[C@H](C(=O)N[C@H](c1ccc([C@@H](CO)N(C(C)C)S(=O)(=O)c2ccc(N)cc2)s1)C(F)(F)F)C(c1ccccc1)c1ccccc1 [Example 77, N-[(1S)-1-{5-[(1R)-1-{[(4-aminophenyl)sulfonyl](propan-2-yl)amino}-2-hydroxyethyl]thiophen-2-yl}-2,2,2-trifluoroethyl]-Nα-(methoxycarbonyl)-β-phenyl-L-phenylalaninamide] — 2.9-fold lower, 23 nM
- COC(=O)N[C@H](C(=O)N[C@H](c1ccc([C@@H](CO)N(C(C)C)S(=O)(=O)c2ccc3[nH]ccc3c2)s1)C(F)(F)F)C(c1ccccc1)c1ccccc1 [Example 78, Nα-(methoxycarbonyl)-β-phenyl-N-[(1S)-2,2,2-trifluoro-1-(5-{(1R)-2-hydroxy-1-[(1H-indol-5-ylsulfonyl)(propan-2-yl)amino]ethyl}thiophen-2-yl)ethyl]-L-phenylalaninamide] — within 1.5-fold, 66.1 nM
- COC(=O)N[C@H](C(=O)N[C@H](c1ccc([C@@H](CO)N(C(C)C)S(=O)(=O)c2ccc3cc[nH]c3c2)s1)C(F)(F)F)C(c1ccccc1)c1ccccc1 [Example 79, Nα-(methoxycarbonyl)-β-phenyl-N-[(1S)-2,2,2-trifluoro-1-(5-{(1R)-2-hydroxy-1-[(1H-indol-6-ylsulfonyl)(propan-2-yl)amino]ethyl}thiophen-2-yl)ethyl]-L-phenylalaninamide] — 5.3-fold lower, 12.5 nM
- COC(=O)N[C@H](C(=O)N[C@H](c1ccc([C@@H](CO)N(C(C)C)S(=O)(=O)c2ccc(N)c(F)c2)s1)C(F)(F)F)C(c1ccccc1)c1ccccc1 [Example 80, N-[(1S)-1-{5-[(1R)-1-{[(4-amino-3-fluorophenyl)sulfonyl](propan-2-yl)amino}-2-hydroxyethyl]thiophen-2-yl}-2,2,2-trifluoroethyl]-Nα-(methoxycarbonyl)-β-phenyl-L-phenylalaninamide] — 2.2-fold lower, 30.5 nM
- COC(=O)N[C@H](C(=O)N[C@H](c1ccc([C@@H](CO)N(C(C)C)S(=O)(=O)c2ccc3cn[nH]c3c2)s1)C(F)(F)F)C(c1ccccc1)c1ccccc1 [Example 81, Nα-(methoxycarbonyl)-β-phenyl-N-[(1S)-2,2,2-trifluoro-1-(5-{(1R)-2-hydroxy-1-[(1H-indazol-6-ylsulfonyl)(propan-2-yl)amino]ethyl}thiophen-2-yl)ethyl]-L-phenylalaninamide] — within 1.5-fold, 74.1 nM
- COC(=O)N[C@H](C(=O)N[C@H](c1ccc([C@@H](CO)N(CCC(C)C)S(=O)(=O)c2ccc(N)cc2)s1)C(F)(F)F)C(c1ccccc1)c1ccccc1 [Example 83, N-[(1S)-1-{5-[(1R)-1-{[(4-aminophenyl)sulfonyl](3-methylbutyl)amino}-2-hydroxyethyl]thiophen-2-yl}-2,2,2-trifluoroethyl]-Nα-(methoxycarbonyl)-β-phenyl-L-phenylalaninamide] — 220-fold lower, 0.3 nM
- COC(=O)N[C@H](C(=O)N[C@H](c1ccc([C@@H](CO)N(CC2CC(F)(F)C2)S(=O)(=O)c2ccc(N)cc2)s1)C(F)(F)F)C(c1ccccc1)c1ccccc1 [Example 84, N-[(1S)-1-{5-[(1R)-1-{[(4-aminophenyl)sulfonyl][(3,3-difluorocyclobutyl)methyl]amino}-2-hydroxyethyl]thiophen-2-yl}-2,2,2-trifluoroethyl]-Nα-(methoxycarbonyl)-β-phenyl-L-phenylalaninamide] — 89-fold lower, 0.75 nM
- COC(=O)N[C@H](C(=O)N[C@H](c1ccc([C@@H](CO)N(CCC(F)(F)F)S(=O)(=O)c2ccc(N)cc2)s1)C(F)(F)F)C(c1ccccc1)c1ccccc1 [Example 85, N-[(1S)-1-{5-[(1R)-1-{[(4-aminophenyl)sulfonyl](3,3,3-trifluoropropyl)amino}-2-hydroxyethyl]thiophen-2-yl}-2,2,2-trifluoroethyl]-Nα-(methoxycarbonyl)-β-phenyl-L-phenylalaninamide] — 200-fold lower, 0.33 nM
- COC(=O)N[C@H](C(=O)N[C@H](c1ccc([C@@H](CO)N(CCC2CC2)S(=O)(=O)c2ccc(N)cc2)s1)C(F)(F)F)C(c1ccccc1)c1ccccc1 [Example 86] — 200-fold lower, 0.34 nM
- COC(=O)N[C@H](C(=O)N[C@H](c1ccc([C@@H](CO)NS(=O)(=O)c2ccc(N)cc2)s1)C(F)(F)F)C(c1ccccc1)c1ccccc1 [Example 87, N-[(1S)-1-{5-[(1R)-1-{[(4-aminophenyl)sulfonyl]amino}-2-hydroxyethyl]thiophen-2-yl}-2,2,2-trifluoroethyl]-Nα-(methoxycarbonyl)-β-phenyl-L-phenylalaninamide] — 2.9-fold higher, 194 nM
- CCCCN([C@H](CO)c1ccc([C@@H](NC(=O)[C@@H](NC(=O)OC)C(c2ccccc2)c2ccccc2)C(F)(F)F)s1)S(=O)(=O)c1ccc(N)cc1 [Example 88, N-[(1S)-1-{5-[(1R)-1-{[(4-aminophenyl)sulfonyl](butyl)amino}-2-hydroxyethyl]thiophen-2-yl}-2,2,2-trifluoroethyl]-Nα-(methoxycarbonyl)-β-phenyl-L-phenylalaninamide] — 200-fold lower, 0.33 nM
- COC(=O)N[C@H](C(=O)N[C@H](c1ccc([C@@H](CO)N(CCc2ccccc2)S(=O)(=O)c2ccc(N)cc2)s1)C(F)(F)F)C(c1ccccc1)c1ccccc1 [Example 89, N-[(1S)-1-{5-[(1R)-1-{[(4-aminophenyl)sulfonyl](2-phenylethyl)amino}-2-hydroxyethyl]thiophen-2-yl}-2,2,2-trifluoroethyl]-Nα-(methoxycarbonyl)-β-phenyl-L-phenylalaninamide] — 26-fold lower, 2.6 nM
- COC(=O)N[C@H](C(=O)N[C@H](c1ccc([C@@H](CO)N(CCC(C)(C)C)S(=O)(=O)c2ccc(-c3cnco3)cc2)s1)C(F)(F)F)C(c1ccccc1)c1ccccc1 [Example 90, N-[(1S)-1-(5-{(1R)-1-[(3,3-dimethylbutyl){[4-(1,3-oxazol-5-yl)phenyl]sulfonyl}amino]-2-hydroxyethyl}thiophen-2-yl)-2,2,2-trifluoroethyl]-Nα-(methoxycarbonyl)43-phenyl-L-phenylalaninamide] — 2.6-fold lower, 25.9 nM
- COC(=O)N[C@H](C(=O)N[C@H](c1ccc([C@@H](CO)N(CCC(C)(C)C)S(=O)(=O)c2ccc3scnc3c2)s1)C(F)(F)F)C(c1ccccc1)c1ccccc1 [Example 91, N-[(1S)-1-(5-{(1R)-1-[(1,3-benzothiazol-5-ylsulfonyl)(3,3-dimethylbutyl)amino]-2-hydroxyethyl}thiophen-2-yl)-2,2,2-trifluoroethyl]-Nα-(methoxycarbonyl)-β-phenyl-L-phenylalaninamide] — 23-fold lower, 2.9 nM
- COC(=O)N[C@H](C(=O)N[C@H](c1ccc([C@@H](CO)N(CCC(C)(C)C)S(=O)(=O)c2ccc3[nH]ncc3c2)s1)C(F)(F)F)C(c1ccccc1)c1ccccc1 [Example 93, N-[(1S)-1-(5-{(1R)-1-[(3,3-dimethylbutyl)(1H-indazol-5-ylsulfonyl)amino]-2-hydroxyethyl}thiophen-2-yl)-2,2,2-trifluoroethyl]-Nα-(methoxycarbonyl)-β-phenyl-L-phenylalaninamide] — 210-fold lower, 0.31 nM
- COC(=O)N[C@H](C(=O)N[C@H](c1ccc([C@@H](CO)N(CCC(C)(C)C)S(=O)(=O)c2ccc3cc[nH]c3c2)s1)C(F)(F)F)C(c1ccccc1)c1ccccc1 [Example 94, N-[(1S)-1-(5-{(1R)-1-[(3,3-dimethylbutyl)(1H-indol-6-ylsulfonyl)amino]-2-hydroxyethyl}thiophen-2-yl)-2,2,2-trifluoroethyl]-Nα-(methoxycarbonyl)-β-phenyl-L-phenylalaninamide] — 740-fold lower, 0.09 nM
- COC(=O)N[C@H](C(=O)N[C@H](c1ccc([C@@H](CO)N(CCC(C)(C)C)S(=O)(=O)c2cc3ccccc3s2)s1)C(F)(F)F)C(c1ccccc1)c1ccccc1 [Example 95, N-[(1S)-1-(5-{(1R)-1-[(1-benzothiophen-2-ylsulfonyl)(3,3-dimethylbutyl)amino]-2-hydroxyethyl}thiophen-2-yl)-2,2,2-trifluoroethyl]-Nα-(methoxycarbonyl)-β-phenyl-L-phenylalaninamide] — 9.6-fold lower, 6.95 nM
- COC(=O)N[C@H](C(=O)N[C@H](c1ccc([C@@H](CO)N(CCC(C)(C)C)S(=O)(=O)c2ccc3ocnc3c2)s1)C(F)(F)F)C(c1ccccc1)c1ccccc1 [Example 96, N-[(1S)-1-(5-{(1R)-1-[(1,3-benzoxazol-5-ylsulfonyl)(3,3-dimethylbutyl)amino]-2-hydroxyethyl}thiophen-2-yl)-2,2,2-trifluoroethyl]-Nα-(methoxycarbonyl)-β-phenyl-L-phenylalaninamide] — 34-fold lower, 1.95 nM
- COC(=O)N[C@H](C(=O)N[C@H](c1ccc([C@@H](CO)N(CCC(C)(C)C)S(=O)(=O)c2ccc(N)c(F)c2)s1)C(F)(F)F)C(c1ccccc1)c1ccccc1 [Example 97, N-[(1S)-1-{5-[(1R)-1-{[(4-amino-3-fluorophenyl)sulfonyl](3,3-dimethylbutyl)amino}-2-hydroxyethyl]thiophen-2-yl}-2,2,2-trifluoroethyl]-Nα-(methoxycarbonyl)-β-phenyl-L-phenylalaninamide] — 54-fold lower, 1.23 nM
